{"source": "patent US20130165368A1", "about": "“ANTIMICROBIAL COMPOUNDS” (priority 2010, published 2013)", "assay_type_in_all_cases": "cell-based", "key": {"[1]": {"test_system": "Enterococcus casseliflavus (VRE) Clin waste", "test": "MIC agar dilution, VRE strain 23", "method": "(§1) Molar equivalent concentrations were used to allow comparison between compounds of differing molecular mass. Due to weighing difficulties, any compound in solid form was melted in a water bath prior to dilution. To make ten-times strength concentrations, which takes into account agar dilution, 0.0352 mmol of each compound was weighed into plastic universal bottles and 4 mL of sterile distilled water (SDW) was added. To produce a homogenous emulsion the universals were vortexed; once achieved the emulsions were serial diluted by adding 2 mL to 2 mL of SDW.\n(§2) For every 100 mL of Isosensitest agar (IST) (CM0471; Oxoid, Basingstoke, England), 3.1 g of the IST powder was added to 100 mL SDW (as per manufacturer's instructions) and sterilised for 15 minutes at 121° C. Once sterilised, the molten agar was cooled to 50° C. in a water-bath. Subsequently 4.8 g of CCEY powder (BC2160; Bioconnections, Wetherby, England), also known as Brazier's medium, was added to 100 mL SDW for every 100 mL of agar needed. This was then sterilised for 15 minutes at 121° C. Once sterilised the molten agar was cooled to 50° C. in a water-bath and 4 mL of egg-yolk emulsion (S2073; TCS Biosciences Ltd, Buckingham, United Kingdom) and 1 mL of lysed defibrinated horse blood (HB035; TCS Biosciences Ltd, Buckingham, United Kingdom) were also added for every 100 mL needed. Horse blood lysis is achieved by dilution to half concentration with SDW; when fully lysed the mixture will turn dark red in colour.\n(§3) 18 mL agar was added to each universal and then poured into sterile Petri dishes. This step creates a 1/10 dilution resulting in agar plates of the required strength. Control plates for each set of strains were created by adding 18 mL of agar to 2 mL of SDW.\n(§4) Suspensions of each bacterial species were prepared with a density equal to that of a 0.5 McFarland standard using a densitometer. All suspensions were made using sterile distilled water and fresh 18-20 hour cultures. As a 0.5 McFarland standard contains 1.5×10^8 CFU/mL and the multipoint inoculators applies 1 μL spots of liquid, each bacterial suspension was diluted 1/15 (20 μL suspension to 280 μL sterile distilled water).\n(§5) Bacterial suspensions were prepared from fresh 18-24 hour cultures as previously described. 1 μL of each strain was inoculated onto all 100 agar plates containing a different chemical concentration and the 2 control plates. This was done using a multipoint inoculator which inoculates 20 strains per plate. All plates were incubated for 22 hours at 37° C. in aerobic conditions.\n(§6) Each plate was examined for bacterial growth after 22 and 48 hours, with each being incubated in between examinations. A positive result was recorded as growth of ≧10 colonies. A negative result was recorded as growth of <10 colonies as this is equivalent to 99.9% inhibition. The lowest concentration of chemical that inhibited growth was recorded as the MIC. The results are recorded in Table IV below, where the numbers are quoted in mmol/L.\n(§7) Given the positive performance of the ethoxylates of lauryl alcohol in reducing the MIC for a number of the micro-organisms tested, further MIC testing of Laureth-1 [C12E1] through to Laureth-8 [C12E8] was conducted on each of the following: • 10 strains of vancomycin-resistant enterococci (VRE)—listed in Table V below; and • 20 strains of methicillin-resistant Staphylococcus aureus (MRSA)—listed in Table VI.\n(§8) The alkanol, alkanol derivatives, agar plates, and inocula were all prepared in the same way as described above.\n(§9) The plates were examined in the same manner as described above and the results are recorded in Table VII below, where the numbers are quoted in mmol/L."}, "MRSA EMRSA 16 21354/95": {"test_system": "MRSA EMRSA 16 21354/95", "test": "MIC agar dilution, MRSA strain 44", "conditions": "Staphylococcus aureus", "method": "as §1, §2, §3, §4, §5, §6, §7, §8, §9"}, "Candida glabrata": {"test_system": "Candida glabrata", "test": "MIC agar dilution, micro-organism 20 (3943)", "conditions": "Nakaseomyces glabratus, Candida glabrata 3943, read-out: MIC", "method_in_brief": "(§10)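 Twofold dilutions of compound emulsions in water were set in Isosensitest agar with Brazier's CCEY medium, egg yolk and lysed horse blood. Spots of 1 µL from 0.5 McFarland suspensions diluted 1/15 were incubated aerobically at 37 °C and read at 22 and 48 h. MIC (mmol/L) was the lowest concentration giving <10 colonies.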"}, "MRSA EMRSA 16 03732/95": {"test_system": "MRSA EMRSA 16 03732/95", "test": "MIC agar dilution, MRSA strain 45", "conditions": "Staphylococcus aureus", "method": "as §1, §2, §3, §4, §5, §6, §7, §8, §9"}, "[2]": {"test_system": "Staphylococcus epidermidis", "test": "MIC agar dilution, micro-organism 14 (11047)", "conditions": "Staphylococcus epidermidis 11047, read-out: MIC", "method_in_brief": "as §10"}, "[3]": {"test_system": "Enterococcus faecalis (VRE) MB 726", "test": "MIC agar dilution, VRE strain 28", "method": "as §1, §2, §3, §4, §5, §6, §7, §8, §9"}, "[4]": {"test_system": "Enterococcus faecium (VRE) NCTC 12952", "test": "MIC agar dilution, VRE strain 30", "method": "as §1, §2, §3, §4, §5, §6, §7, §8, §9"}, "MRSA EMRSA 15 19972/98": {"test_system": "MRSA EMRSA 15 19972/98", "test": "MIC agar dilution, MRSA strain 39", "conditions": "Staphylococcus aureus", "method": "as §1, §2, §3, §4, §5, §6, §7, §8, §9"}, "MRSA FRA 920": {"test_system": "MRSA FRA 920", "test": "MIC agar dilution, MRSA strain 38", "conditions": "Staphylococcus aureus", "method": "as §1, §2, §3, §4, §5, §6, §7, §8, §9"}, "[5]": {"test_system": "Enterococcus faecalis (VRE) PHLS URINE 2000", "test": "MIC agar dilution, VRE strain 21", "method": "as §1, §2, §3, §4, §5, §6, §7, §8, §9"}, "[6]": {"test_system": "Enterococcus faecium (VRE) MB 3137", "test": "MIC agar dilution, VRE strain 26", "method": "as §1, §2, §3, §4, §5, §6, §7, §8, §9"}, "Steptococcus pyogenes": {"test_system": "Steptococcus pyogenes", "test": "MIC agar dilution, micro-organism 11 (8306)", "conditions": "Steptococcus pyogenes 8306, read-out: MIC", "method_in_brief": "as §10"}, "Listeria monocytogenes": {"test_system": "Listeria monocytogenes", "test": "MIC agar dilution, micro-organism 15 (11994)", "conditions": "Listeria monocytogenes 11994, read-out: MIC", "method_in_brief": "as §10"}}, "note": "Where two headings read alike, the source gives them in different places."}
{"molecule": "CCCCCCCCCCCCOCCOCCOCCOCCO", "note": "[L4, Tetraethylene Glycol Monododecyl Ether]", "values": [{"measurement": "MIC", "setting": "[1]; 22 hrs", "result": 110, "unit": "µM"}, {"measurement": "MIC", "setting": "[1]; 48 hrs", "result": 110, "unit": "µM"}, {"measurement": "MIC", "setting": "MRSA EMRSA 16 21354/95; 22 hrs", "result": 55, "unit": "µM"}, {"measurement": "MIC", "setting": "MRSA EMRSA 16 21354/95; 48 hrs", "result": 55, "unit": "µM"}, {"measurement": "MIC", "setting": "Candida glabrata; 22 h, 22 hrs", "result": 110, "unit": "µM"}, {"measurement": "MIC", "setting": "Candida glabrata; 48 h, 48 hrs", "result": 110, "unit": "µM"}, {"measurement": "MIC", "setting": "MRSA EMRSA 16 03732/95; 22 hrs", "result": 110, "unit": "µM"}, {"measurement": "MIC", "setting": "MRSA EMRSA 16 03732/95; 48 hrs", "result": 110, "unit": "µM"}, {"measurement": "MIC", "setting": "[2]; 22 hrs", "result": 110, "unit": "µM"}, {"measurement": "MIC", "setting": "[2]; 48 hrs", "result": 110, "unit": "µM"}, {"measurement": "MIC", "setting": "[3]; 22 hrs", "result": 220, "unit": "µM"}, {"measurement": "MIC", "setting": "[3]; 48 hrs", "result": 220, "unit": "µM"}, {"measurement": "MIC", "setting": "[4]; 22 hrs", "result": 440, "unit": "µM"}, {"measurement": "MIC", "setting": "[4]; 48 hrs", "result": 440, "unit": "µM"}, {"measurement": "MIC", "setting": "MRSA EMRSA 15 19972/98; 22 hrs", "result": 55, "unit": "µM"}, {"measurement": "MIC", "setting": "MRSA EMRSA 15 19972/98; 48 hrs", "result": 55, "unit": "µM"}, {"measurement": "MIC", "setting": "MRSA FRA 920; 22 hrs", "result": 55, "unit": "µM"}, {"measurement": "MIC", "setting": "MRSA FRA 920; 48 hrs", "result": 55, "unit": "µM"}, {"measurement": "MIC", "setting": "[5]; 22 hrs", "result": 110, "unit": "µM"}, {"measurement": "MIC", "setting": "[5]; 48 hrs", "result": 110, "unit": "µM"}, {"measurement": "MIC", "setting": "[6]; 22 hrs", "result": 880, "unit": "µM"}, {"measurement": "MIC", "setting": "[6]; 48 hrs", "result": "> 880", "unit": "µM"}, {"measurement": "MIC", "setting": "Steptococcus pyogenes; 22 h, 22 hrs", "result": "≤ 50", "unit": "µM"}, {"measurement": "MIC", "setting": "Steptococcus pyogenes; 48 h, 48 hrs", "result": "≤ 50", "unit": "µM"}, {"measurement": "MIC", "setting": "Listeria monocytogenes; 22 hrs", "result": 110, "unit": "µM"}, {"measurement": "MIC", "setting": "Listeria monocytogenes; 48 hrs", "result": 220, "unit": "µM"}]}
